Blank lines part the entries; values can stand above or below the compound they belong to.
Tests used:
physchem [1] = conditions: buffer, pH 7.4
Description: Lipophilicity, logD of compound at pH 7.4 by HPLC analysis

Translocator protein [2] = target: T1, Translocator protein (Homo sapiens, UniProt P30536)
Description: Binding affinity to human mitochondrial TSPO

[3] = Lipophilicity, logD of the compound at pH 7.4; assay type: physicochemical; conditions: buffer
physchem [4] = conditions: buffer, pH 6.8
Description: Lipophilicity, logD of compound at pH 6.8

Translocator protein [5] = target: Translocator protein (Rattus norvegicus, UniProt P16257)
Description: Binding affinity to rat TSPO receptor assessed as inhibition constant

Albumin = Albumin (Macaca fascicularis, UniProt A2V9Z4)
Chain of Albumin (A2V9Z4 whole entry): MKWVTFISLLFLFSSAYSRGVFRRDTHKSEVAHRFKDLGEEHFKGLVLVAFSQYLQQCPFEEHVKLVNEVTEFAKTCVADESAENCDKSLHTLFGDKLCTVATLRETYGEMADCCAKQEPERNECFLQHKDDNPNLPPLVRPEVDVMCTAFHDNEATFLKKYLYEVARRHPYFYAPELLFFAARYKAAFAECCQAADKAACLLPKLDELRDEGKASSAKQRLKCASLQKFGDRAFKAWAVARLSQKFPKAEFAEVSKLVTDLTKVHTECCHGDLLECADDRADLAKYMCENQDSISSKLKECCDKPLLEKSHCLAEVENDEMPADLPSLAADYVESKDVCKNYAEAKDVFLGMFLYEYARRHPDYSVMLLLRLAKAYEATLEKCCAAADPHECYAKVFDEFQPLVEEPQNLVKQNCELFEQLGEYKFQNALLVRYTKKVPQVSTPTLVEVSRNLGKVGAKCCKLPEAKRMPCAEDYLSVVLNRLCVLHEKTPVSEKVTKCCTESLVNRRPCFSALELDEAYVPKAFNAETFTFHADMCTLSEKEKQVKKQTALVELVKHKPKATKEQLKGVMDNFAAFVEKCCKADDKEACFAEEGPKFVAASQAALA
Description: Binding affinity to monkey albumin

Translocator protein [6] = target: T1, Translocator protein; remark: listed apart in the source
Description: Binding affinity to human TSPO assessed as inhibition constant

T1 sequence (P30536 whole entry): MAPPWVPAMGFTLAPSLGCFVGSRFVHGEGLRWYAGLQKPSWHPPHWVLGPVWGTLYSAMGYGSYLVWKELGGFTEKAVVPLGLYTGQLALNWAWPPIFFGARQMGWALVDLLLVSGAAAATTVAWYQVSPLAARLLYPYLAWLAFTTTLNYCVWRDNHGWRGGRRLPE
Chain of Translocator protein (Rattus norvegicus, UniProt P16257) (P16257 whole entry, looked up): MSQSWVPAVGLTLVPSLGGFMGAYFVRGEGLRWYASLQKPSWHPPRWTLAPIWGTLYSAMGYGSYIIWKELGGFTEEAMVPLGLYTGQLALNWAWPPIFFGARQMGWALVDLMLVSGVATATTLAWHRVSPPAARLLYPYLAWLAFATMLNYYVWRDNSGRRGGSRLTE

SMILES: COc1ccc(OCC[18F])c(CN(C(C)=O)c2cc(F)ccc2Oc2ccccc2)c1
logD (physchem [1]): 3.81

SMILES: COc1ccccc1CN(C(=O)C[18F])c1cnccc1Oc1ccccc1
logD (physchem [4]): 4.01 | Ki (Translocator protein [5]): 180 pM | Ki (Albumin): 300 pM | Ki (Translocator protein [6]): 997 pM

SMILES: CCCN(CCC)C(=O)Cc1c(-c2ccc(OCC[18F])cc2)nc2c(Cl)cc(Cl)cn12
logD (physchem [1]): 3

The remaining lines, values ahead:

logD (physchem [1]): 3.97
SMILES: CC[C@@H](C)N([11CH3])C(=O)c1cc2ccccc2c(-c2ccccc2Cl)n1

Ki (Translocator protein [2]): 2200 pM | logD [3]: 3.01
SMILES: CC(=O)N(Cc1ccccc1O[11CH3])c1cnccc1Oc1ccccc1

From ChEMBL document CHEMBL5344430, “Targeting the Translocator Protein (18 kDa) in Cardiac Diseases: State of the Art and Future Opportunities” (J Med Chem, 2024)
